Consider 18 compounds from patent publication US5686486A, “4-hydroxy-benzopyran-2-ones and 4-hydroxy-cycloalkyl[b]pyran-2-ones useful to treat retroviral infections” (priority 1995, dated 1997).

Where two headings read alike, the source gives them in different places.

The target of this assay is HIV-1 protease (Human immunodeficiency virus type 1 group M subtype B, UniProt P04585). Nature of the assay: biochemical. The conditions noted are these: for inhibition at 0.123 µM: read-out: HIV-1 Protease % Inhib, dose 0.123 uM. In a few lines: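 Percent inhibition derived from fluorescent cleavage product separated by filtration after streptavidin-bead capture of intact biotin/FITC substrate. Reaction: enzyme (10 μl, 0.1 μM stock) with substrate (20 μl, 0.2 μM stock) and compound, 1 h at room temperature in dark, pH 5.5 acetate buffer with 1.0 M NaCl and 0.05% NP-40.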

Where [1] appears, read: read-out: HIV-1 Protease % Inhib, dose 0.370 uM.
Where [2] appears, read: read-out: HIV-1 Protease % Inhib, dose 1.100 uM.
Setting [3] is: read-out: HIV-1 Protease % Inhib, dose 3.300 uM.
[4] abbreviates: read-out: HIV-1 Protease % Inhib, dose 10.000 uM.
Setting [5] is: read-out: HIV-1 Protease % Inhib, dose 30.000 uM.
[6] abbreviates: dose 1.100 uM, read-out: HIV-1 Protease % Inhib.
[7] abbreviates: dose 3.300 uM, read-out: HIV-1 Protease % Inhib.
The mark [8] stands for this setting: dose 10.000 uM, read-out: HIV-1 Protease % Inhib.
[9] abbreviates: dose 30.000 uM, read-out: HIV-1 Protease % Inhib.

On to `CCCCOc1ccc(S(=O)(=O)Nc2cccc(C(c3c(O)c4c(oc3=O)CCCCCC4)C3CC3)c2)cc1` (centres unmarked) [Example 406, 4-Butoxy-N-[3-[cyclopropyl(5,6,7,8,9,10-hexahydro-4-hydroxy-2-oxo-2H-cycloocta[b]pyran-3-yl)methyl]phenyl]-benzenesulfonamide], for which the inhibition at 0.123 µM is 37.1%. Further, the “HIV-1 Protease % Inhib” value (dose 1.100 uM) is 87.61%. Also, under “dose 3.300 uM”, the “HIV-1 Protease % Inhib” value is given as 85.17%. Where the note is “dose 10.000 uM”, the “HIV-1 Protease % Inhib” value was 97.39%. The “HIV-1 Protease % Inhib” value (dose 30.000 uM) was 97.21%. Also, under setting [1], the inhibition at 0.37 µM is 69.4%.

For the compound `O=c1oc2c(c(O)c1C(c1cccc(NS(=O)(=O)c3ccc(Cl)c(Cl)c3Cl)c1)C1CC1)CCCCCC2` (centres unmarked) [Example 410, 2,3,4-Trichloro-N-[3-[cyclopropyl(5,6,7,8,9,10-hexahydro-4-hydroxy-2-oxo-2H-cycloocta[b]pyran-3-yl)methyl]phenyl]-benzenesulfonamide], the inhibition at 0.123 µM stood at 49.5%. Under setting [1], the inhibition at 0.37 µM stood at 79.7%. For the same compound, under setting [2], the inhibition at 1.1 µM is 91.4%. The inhibition at 3.3 µM under setting [3] amounted to 90.9%. The inhibition at 10 µM under setting [4] came to 96.8%. Besides, the inhibition at 30 µM under setting [5] stood at 98.3%.

For `CC(C)C(c1cccc(NS(=O)(=O)c2cccc3cccnc23)c1)c1c(O)c2c(oc1=O)CCCCCC2` (centres unmarked) [Example 416, 8-Quinolinesulfonamide, N-[3-[1-(5,6,7,8,9,10-hexahydro4-hydroxy-2-oxo-2H-cycloocta[b]pyran-3-yl)-2-methylpropyl]phenyl]-], the inhibition at 0.123 µM was found to be 50.9%. The inhibition at 0.37 µM under setting [1] was found to be 88%. In addition, under setting [2], the inhibition at 1.1 µM came to 102%. Besides, the inhibition at 3.3 µM under setting [3] came out at 99.7%. The inhibition at 10 µM under setting [4] was determined as 98.6%. The inhibition at 30 µM under setting [5] came out at 97.8%.

Consider `CC(C)C(c1cccc(NS(=O)(=O)c2cccnc2)c1)c1c(O)c2c(oc1=O)CCCCCC2` (centres unmarked) [Example 417, 3-Pyridinesulfonamide, N-[3-[1-(5,6,7,8,9,10-hexahydro4-hydroxy-2-oxo-2H-cycloocta[b]pyran-3-yl)-2-methylpropyl]phenyl]-], for which the inhibition at 0.123 µM was determined as 36.4%. Further, the inhibition at 0.37 µM under setting [1] was determined as 65.9%. Besides, under setting [2], the inhibition at 1.1 µM was determined as 89.2%. Further, the inhibition at 3.3 µM under setting [3] stood at 95.1%. Also, the inhibition at 10 µM under setting [4] is 102%. The inhibition at 30 µM under setting [5] came out at 97.3%.

Take `CC(C)C(c1cccc(NS(=O)(=O)c2ccc(F)cc2)c1)c1c(O)c2c(oc1=O)CCCCCC2` (centres unmarked) [Example 418, Benzenesulfonamide, N-[3-[1-(5,6,7,8,9,10-hexahydro-4-hydroxy-2-oxo-2H-cycloocta[b]pyran-3-yl)-2-methylpropyl]phenyl]4-fluoro-]: the inhibition at 0.123 µM worked out at 81.8%. For the same compound, the inhibition at 0.37 µM under setting [1] came to 87.5%. The inhibition at 1.1 µM under setting [2] turned out to be 98.6%. Also, the inhibition at 3.3 µM under setting [3] turned out to be 110%. Under setting [4], the inhibition at 10 µM was 119%. The inhibition at 30 µM under setting [5] was 123%.

In the case of `CCCCC(c1cccc(NS(=O)(=O)c2ccc(C#N)cc2)c1)c1c(O)c2c(oc1=O)CCCCCC2` (centres unmarked) [Example 421, Benzenesulfonamide, 4-cyano-N-[3-[1-(5,6,7,8,9,10-hexahydro-4-hydroxy-2-oxo-2H-cycloocta[b]pyran-3-yl)pentyl]phenyl]-], the inhibition at 0.123 µM worked out at 93.9%. The inhibition at 0.37 µM under setting [1] turned out to be 104%. Moreover, the inhibition at 1.1 µM under setting [2] worked out at 99.1%. Moreover, under setting [3], the inhibition at 3.3 µM is 97.9%. The inhibition at 10 µM under setting [4] turned out to be 108%. Further, the inhibition at 30 µM under setting [5] is 90%.

Take `CCCCC(c1cccc(NS(=O)(=O)c2ccc(F)cc2)c1)c1c(O)c2c(oc1=O)CCCCCC2` (centres unmarked) [Example 422]: the inhibition at 0.123 µM was found to be 100%. In addition, the inhibition at 0.37 µM under setting [1] came out at 95.4%. Also, the inhibition at 1.1 µM under setting [2] was found to be 96.5%. Also, the inhibition at 3.3 µM under setting [3] was determined as 103%. Besides, under setting [4], the inhibition at 10 µM amounted to 97.6%. In addition, the inhibition at 30 µM under setting [5] turned out to be 95.2%.

On to `CC(C)CC(c1cccc(NS(=O)(=O)c2ccc(F)cc2)c1)c1c(O)c2c(oc1=O)CCCCCC2` (centres unmarked) [Example 425, Benzenesulfonamide, N-[3-[1-(5,6,7,8,9,10-hexahydro-4-hydroxy-2-oxo-2H-cycloocta[b]pyran-3-yl)-3-methylbutyl]phenyl]-4-fluoro-], for which the inhibition at 0.123 µM came to 97.4%. Under setting [1], the inhibition at 0.37 µM amounted to 109%. Further, under setting [2], the inhibition at 1.1 µM turned out to be 101%. Also, the inhibition at 3.3 µM under setting [3] turned out to be 108%. The inhibition at 10 µM under setting [4] is 98.5%. Also, under setting [5], the inhibition at 30 µM was determined as 98.5%.

Turning to `CC(C)CC(c1cccc(NS(=O)(=O)c2cccc3cccnc23)c1)c1c(O)c2c(oc1=O)CCCCCC2` (centres unmarked) [Example 428, 8-Quinolinesulfonamide, N-[3-[1-(5,6,7,8,9,10-hexahydro4-hydroxy-2-oxo-2H-cycloocta[b]pyran-3-yl)-3-methylbutyl]phenyl]-], the inhibition at 0.123 µM came out at 86.3%. Under setting [1], the inhibition at 0.37 µM came out at 84%. Under setting [2], the inhibition at 1.1 µM worked out at 86.5%. The inhibition at 3.3 µM under setting [3] amounted to 87.1%. In addition, the inhibition at 10 µM under setting [4] was 87.9%. The inhibition at 30 µM under setting [5] was 84.2%.

As to `CC(C)CC(c1cccc(NS(=O)(=O)c2cccnc2)c1)c1c(O)c2c(oc1=O)CCCCCC2` (centres unmarked) [Example 429, 3-Pyridinesulfonamide, N-[3-[1-(5,6,7,8,9,10-hexahydro4-hydroxy-2-oxo-2H-cycloocta[b]pyran-3-yl)-3-methylbutyl]phenyl]-], the inhibition at 0.123 µM was determined as 88.6%. In addition, the inhibition at 0.37 µM under setting [1] was determined as 98.2%. For the same compound, the inhibition at 1.1 µM under setting [2] stood at 99.9%. Besides, the inhibition at 3.3 µM under setting [3] turned out to be 103%. Also, the inhibition at 10 µM under setting [4] is 107%. Besides, the inhibition at 30 µM under setting [5] turned out to be 108%.

For the compound `CCCC(c1cccc(NS(=O)(=O)c2ccc(F)cc2)c1)c1c(O)c2c(oc1=O)CCCCCC2` (centres unmarked) [Example 430, Benzenesulfonamide, N-[3-[1-(5,6,7,8,9,10-hexahydro-4-hydroxy-2-oxo-2H-cycloocta[b]pyran-3-yl)butyl]phenyl]-4-fluoro-], the inhibition at 0.123 µM worked out at 72.3%. For the same compound, under setting [1], the inhibition at 0.37 µM was determined as 98.2%. For the same compound, the inhibition at 1.1 µM under setting [2] worked out at 96.6%. For the same compound, the inhibition at 3.3 µM under setting [3] was determined as 104%. The inhibition at 10 µM under setting [4] was found to be 105%. For the same compound, the inhibition at 30 µM under setting [5] worked out at 97.3%.

In the case of `O=C(Nc1ccc(C(c2c(O)c3c(oc2=O)CCCCCC3)C2CC2)cc1)OCc1ccccc1` (centres unmarked) [Example 470, Carbamic acid, [4-[cyclopropyl (5,6,7,8,9,10-hexahydro-4-hydroxy-2-oxo-2H-cycloocta[b]pyran-3-yl)methyl]phenyl]-phenylmethyl ester], under setting [6], the inhibition at 1.1 µM is 16.1%. Moreover, the inhibition at 3.3 µM under setting [7] stood at 59.2%. The inhibition at 10 µM under setting [8] amounted to 102%. Moreover, under setting [9], the inhibition at 30 µM came out at 118%.

For the compound `Nc1ccc(C(c2c(O)c3c(oc2=O)CCCCCC3)C2CC2)cc1` (centres unmarked) [Example 471, 3-[(4-Aminophenyl)cyclopropylmethyl]-5,6,7,8,9,10-hexahydro-4-hydroxy-2H-cycloocta[b]pyran-2-one], the inhibition at 1.1 µM under setting [6] is 37.5%. Further, under setting [7], the inhibition at 3.3 µM came to 75.6%. Under setting [8], the inhibition at 10 µM is 102%. In addition, the inhibition at 30 µM under setting [9] was determined as 110%.

As to `N#Cc1ccc(S(=O)(=O)Nc2ccc(C(c3c(O)c4c(oc3=O)CCCCCC4)C3CC3)cc2)cc1` (centres unmarked) [Example 472, Benzenesulfonamide, 4-cyano-N-[4-[cyclopropyl (5,6,7,8,9,10-hexahydro-4-hydroxy-2-oxo-2H-cycloocta [b]pyran-3-yl)methyl]phenyl]-], the inhibition at 3.3 µM under setting [7] was determined as 15.5%. Besides, the inhibition at 10 µM under setting [8] came to 82.2%. Also, the inhibition at 30 µM under setting [9] was 110%.

Consider `O=c1oc2c(c(O)c1C(c1ccc(NS(=O)(=O)c3ccc(Cl)cc3)cc1)C1CC1)CCCCCC2` (centres unmarked) [Example 473, Benzenesulfonamide, 4-chloro-N-[4-[cyclopropyl(5,6,7,8,9,10-hexahydro-4-hydroxy-2-oxo-2H-cycloocta[b]pyran-3-yl)methyl]phenyl]-], for which the inhibition at 3.3 µM under setting [7] amounted to 14.4%. Under setting [8], the inhibition at 10 µM amounted to 73.6%. Further, the inhibition at 30 µM under setting [9] was determined as 86.8%.

In the case of `O=c1oc2c(c(O)c1C(c1ccc(NS(=O)(=O)c3ccc(F)cc3)cc1)C1CC1)CCCCCC2` (centres unmarked) [Example 474, Benzenesulfonamide, 4-fluoro-N-[4-[cycloptopyl(5,6,7,8,9,10-hexahydro-4-hydroxy-2-oxo-2H-cycloocta[b]pyran-3-yl)methyl]phenyl]-], the inhibition at 3.3 µM under setting [7] is 11.4%. In addition, the inhibition at 10 µM under setting [8] amounted to 40.4%. Besides, the inhibition at 30 µM under setting [9] worked out at 57.2%.

Regarding `O=c1oc2c(c(O)c1C(c1ccc(NS(=O)(=O)c3cccc([N+](=O)[O-])c3)cc1)C1CC1)CCCCCC2` (centres unmarked) [Example 475, Benzenesulfonamide, 3-nitro-N-[4-[cyclopropyl (5,6,7,8,9,10-hexahydro-4-hydroxy-2-oxo-2H-cycloocta[b]pyran-3-yl)methyl]phenyl]-], the inhibition at 0.37 µM (dose 0.370 uM, read-out: HIV-1 Protease % Inhib) was 11.8%. Besides, under setting [6], the inhibition at 1.1 µM worked out at 27.9%. Further, the inhibition at 3.3 µM under setting [7] was 84.1%. Besides, the inhibition at 10 µM under setting [8] was found to be 103%. Also, the inhibition at 30 µM under setting [9] turned out to be 110%.

In the case of `Cn1cnc(S(=O)(=O)Nc2ccc(C(c3c(O)c4c(oc3=O)CCCCCC4)C3CC3)cc2)c1` (centres unmarked) [Example 476, N-[4-[Cyclopropyl (5,6,7,8,9,10-hexahydro-4-hydroxy-2-oxo-2H-cycloocta[b]pyran-3-yl)methyl]phenyl]-1-methyl-1H-imidazole-4-sulfonamide], the inhibition at 1.1 µM under setting [6] was 19.5%. For the same compound, the inhibition at 3.3 µM under setting [7] turned out to be 53.1%. Under setting [8], the inhibition at 10 µM was 83%. The inhibition at 30 µM under setting [9] came to 83.1%.
